Assay results published in paper PMC5502055, “Phase II study of lanreotide autogel in Japanese patients with unresectable or metastatic well-differentiated neuroendocrine tumors” (Investigational New Drugs, 2017).

What was measured:
serum CgA = assay: Serum chromogranin A (CgA) concentration; type: in vivo, human; conditions: 15 of 17 patients with baseline CgA >100 ng/mL
Method: Serum CgA, serum anti-lanreotide antibody, and serum lanreotide testing methods are described in the Electronic Supplementary Material.
In the primary analysis, the CBR point estimate at 24 weeks after the first injection and an exact F distribution-based 95% confidence interval (CI) were calculated. The CBR was selected as the primary endpoint, because maintaining SD was deemed beneficial and clinically meaningful for NET patients. In the secondary analysis, Kaplan–Meier curves of PFS and OS were prepared, and median values and 95% CIs were calculated. The ORRs at 24, 48, and 60 weeks after the first injection were also calculated. Regarding percent changes from baseline in the sum of the diameters of target lesion, descriptive statistics were calculated for each evaluation time point, and waterfall plots of the best response and last evaluation time points were prepared. Regarding the serum CgA concentration and QOL evaluation, descriptive statistics of changes from baseline were calculated for each time point. For all endpoints, the starting point of evaluation was set as the baseline for the phase II study.
Serum chromogranin A concentrations were determined centrally every 12 weeks for the 48-weeks period following the start of administration, and every 24 weeks thereafter (SRL Medisearch Inc.,Tokyo,Japan, Kit Cisbio).

[1] = Serum anti-lanreotide antibody test (radioimmunoprecipitation assay); type: in vivo, human
Method: For the safety evaluation, adverse events (AEs) were recorded after the first injection until the point of data cutoff (December 2015) in the extension study. AE severity was assessed according to the National Cancer Institute Common Terminology Criteria for Adverse Events (NCI-CTCAE) ver. 4.0. Gallbladder echography and blood evaluations, including serum anti-lanreotide antibody tests were performed every 12 weeks during the 48 -week period after the first injection, and every 24 weeks thereafter.
Serum anti-lanreotide antibody levels were determined every 4 weeks for the 24-weeks period following the start of administration, and every 12 weeks thereafter for the 48-weeks. Serum anti-lanreotide antibody levels were centrally determined using a validated radioimmunoprecipitation assay (RIPA; SGS Cephac, Saint-Benoît, France). Anti-lanreotide antibody-positivity was evaluated in two stages: screening test and confirmation test. Antibody titers were determined for samples found to be positive in the confirmation test.

## CC(C)[C@@H]1NC(=O)[C@H](CCCCN)NC(=O)[C@@H](Cc2c[nH]c3ccccc23)NC(=O)[C@H](Cc2ccc(O)cc2)NC(=O)[C@@H](NC(=O)[C@H](N)Cc2ccc3ccccc3c2)CSSC[C@@H](C(=O)N[C@H](C(N)=O)[C@@H](C)O)NC1=O [lanreotide]
Serum CgA
  patients with serum CgA decrease of ≥50% by last examination relative to baseline: 88.2%
[1]; 2 patients, RIPA
  patients positive for anti-lanreotide antibodies: 6.3%
[1]; Patient A, Baseline
  Anti-lanreotide antibody test: Negative
[1]; Patient A, Week 4
  Anti-lanreotide antibody test: Negative
[1]; Patient A, Week 8
  Anti-lanreotide antibody test: Negative
[1]; Patient A, Week 12
  Anti-lanreotide antibody test: Negative
[1]; Patient A, Week 16
  Anti-lanreotide antibody test: Positive
  Antibody titer: 1/1
[1]; Patient A, Week 20
  Anti-lanreotide antibody test: Negative
[1]; Patient A, Week 24
  Anti-lanreotide antibody test: Negative
[1]; Patient A, Week 36
  Anti-lanreotide antibody test: Positive
  Antibody titer: 1/2
[1]; Patient B, Baseline
  Anti-lanreotide antibody test: Negative
[1]; Patient B, Week 4
  Anti-lanreotide antibody test: Negative
[1]; Patient B, Week 8
  Anti-lanreotide antibody test: Positive
  Antibody titer: 1/4
[1]; Patient B, Week 12
  Anti-lanreotide antibody test: Positive
  Antibody titer: 1/32
[1]; Patient B, Week 16
  Anti-lanreotide antibody test: Positive
  Antibody titer: 1/32
[1]; Patient B, Week 20
  Anti-lanreotide antibody test: Positive
  Antibody titer: 1/64
[1]; Patient B, Week 24
  Anti-lanreotide antibody test: Positive
  Antibody titer: 1/64
[1]; Patient B, Week 36
  Anti-lanreotide antibody test: Positive
  Antibody titer: 1/256
[1]; Patient B, Week 48
  Anti-lanreotide antibody test: Positive
  Antibody titer: 1/512
